From patent US7645881B2, “Methods for treating hepatitis C” (PTC Therapeutics, Inc., priority 2004, dated 2010)

Assays:
HCV replicon = experiment: microbe, parasite or virus in culture; assay type: cell-based; conditions: Hepatitis C virus, 48 h, read-out: Replicon IC50s μM

In the case of `Nc1c(C(=O)N2CCOCC2)sc2nc3c(cc12)CCCCC3` [Compound 1], the IC50 (HCV replicon) is reported as > 2 µM and the melting point is reported as 203 to 204 °C.
For `CC(C)(C)c1cc(C(F)(F)F)c2c(N)c(C(N)=O)sc2n1` [Compound 2], the IC50 (HCV replicon) was > 2 µM.
With `CCc1c(C)nc2sc(C(=O)OC(C)(C)C)c(N)c2c1C` [Compound 3, tert-Butyl 3-amino-5-ethyl-4,6-dimethylthieno[2,3-B]pyridine-2-carboxylate] the IC50 (HCV replicon) was 0.5 to 2 µM and the melting point was 135 to 136 °C.
For `CC1(C)Cc2c(c(N3CCOCC3)nc3sc(C(N)=O)c(N)c23)CO1` [Compound 4], the IC50 (HCV replicon) was > 2 µM.
With `CCc1c(C)nc2sc(-c3nnc(-c4ccccc4)o3)c(N)c2c1C` [Compound 6, 5-ethyl-4,6-dimethyl-2-(5-phenyl-[1,3,4]oxadiazol-2-yl)-thieno[2,3-b]pyridin-3-yl amine] the IC50 (HCV replicon) was 0.5 to 2 µM and the melting point was 306 to 307 °C.
Work on `Cc1cccc(-c2nnc(-c3sc4nc(C)c(C)c(C)c4c3N)o2)c1` [Compound 7] yielded an IC50 (HCV replicon) of 0.5 to 2 µM and a melting point of 268 to 270 °C.
Work on `Cc1nc2sc(-c3nnc(-c4cccc(F)c4)o3)c(N)c2c(C)c1C` [Compound 8] yielded an IC50 (HCV replicon) of 0.5 to 2 µM and a melting point of 300 to 302 °C.
`Cc1nc2sc(-c3nnc(-c4ccc(Cl)s4)o3)c(N)c2c(C)c1C` [Compound 9] showed an IC50 (HCV replicon) of 0.5 to 2 µM and a melting point of 284 to 286 °C.
Compound `Cc1nc2sc(-c3nnc(-c4ccc(F)cc4)o3)c(N)c2c(C)c1C` [Compound 10] has an IC50 (HCV replicon) of 0.5 to 2 µM and a melting point of 320 to 322 °C.
In the case of `Cc1nc2sc(-c3nnc(-c4cccc(Cl)c4)o3)c(N)c2c(C)c1C` [Compound 11], the IC50 (HCV replicon) is reported as > 2 µM and the melting point is reported as 302 to 303 °C.
With `Cc1nc2sc(-c3nnc(-c4ccc(Cl)cc4)o3)c(N)c2c(C)c1C` [Compound 12] the IC50 (HCV replicon) was > 2 µM and the melting point was 331 to 332 °C.
For `Cc1ccccc1-c1nnc(-c2sc3nc(C)c(C)c(C)c3c2N)o1` [Compound 13], the IC50 (HCV replicon) was < 0.5 µM and the melting point was 261 to 262 °C.
For `Cc1nc2sc(-c3nnc(-c4ccccc4F)o3)c(N)c2c(C)c1C` [Compound 14], the IC50 (HCV replicon) was < 0.5 µM and the melting point was 287 to 288 °C.
For `Cc1nc2sc(-c3nnc(-c4ccccc4Cl)o3)c(N)c2c(C)c1C` [Compound 15], the IC50 (HCV replicon) was 0.5 to 2 µM and the melting point was 284 to 286 °C.
For `Cc1nc2sc(-c3nnc(-c4ccccn4)o3)c(N)c2c(C)c1C` [Compound 16], the IC50 (HCV replicon) was < 0.5 µM and the melting point was 306 to 308 °C.
Compound `CCCCNc1cc(C)c2c(N)c(C(N)=O)sc2n1` [Compound 17] has an IC50 (HCV replicon) of 0.5 to 2 µM and a melting point of 169 to 170 °C.
Compound `Cc1nc2sc(-c3nc(COc4ccc(Cl)c(Cl)c4)no3)c(N)c2c(C)c1C` [Compound 18] has an IC50 (HCV replicon) of 0.5 to 2 µM and a melting point of 197 to 200 °C.
For `Cc1nc2sc(-c3nc(-c4cccs4)no3)c(N)c2c(C)c1C` [Compound 19], the IC50 (HCV replicon) was < 0.5 µM and the melting point was 281 to 282 °C.
In the case of `COc1ccccc1-c1noc(-c2sc3nc(C)c(C)c(C)c3c2N)n1` [Compound 20], the IC50 (HCV replicon) is reported as 0.5 to 2 µM and the melting point is reported as 244 to 245 °C.
With `Cc1nc2sc(-c3noc(-c4ccccc4)n3)c(N)c2c(C)c1C` [Compound 21] the IC50 (HCV replicon) was < 0.5 µM and the melting point was 248 to 250 °C.
In the case of `Cc1nc2sc(-c3noc(-c4cccs4)n3)c(N)c2c(C)c1C` [Compound 22], the IC50 (HCV replicon) is reported as < 0.5 µM and the melting point is reported as 260 to 265 °C.
Compound `COc1ccccc1-c1nnc(-c2sc3nc(C)c(C)c(C)c3c2N)o1` [Compound 23] has an IC50 (HCV replicon) of 0.5 to 2 µM and a melting point of 238 to 240 °C.
For `Cc1nc2sc(-c3nc(-c4ccccc4)no3)c(N)c2c(C)c1C` [Compound 24, 4,5,6-trimethyl-2-(3-phenyl-[1,2,4]oxadiazol-5-yl)-thieno[2,3-b]pyridin-3-ylamine], the IC50 (HCV replicon) was < 0.5 µM and the melting point was 276 to 278 °C.
For `Cc1nc2sc(-c3nc(-c4cccnc4)no3)c(N)c2c(C)c1C` [Compound 25], the IC50 (HCV replicon) was 0.5 to 2 µM and the melting point was 278 to 280 °C.
Compound `Cc1nc2sc(-c3ncc(-c4ccccc4)o3)c(N)c2c(C)c1C` [Compound 26] has an IC50 (HCV replicon) of 0.5 to 2 µM and a melting point of 284 to 285 °C.
For `CCc1c(C)nc2sc(C(C)=O)c(-n3cccc3)c2c1C` [Compound 27], the IC50 (HCV replicon) was > 2 µM and the melting point was 145 to 147 °C.
In the case of `Nc1c(C(=O)Nc2ccccc2)sc2nc3c(cc12)CCCCC3` [Compound 28], the IC50 (HCV replicon) is reported as > 2 µM.
In the case of `Cc1cc(-c2cccs2)c2c(N)c(C#N)sc2n1` [Compound 30], the IC50 (HCV replicon) is reported as > 2 µM.
For `CC(C)(C)OC(=O)c1sc2nc3c(c(-c4cccc(F)c4F)c2c1N)CCCCC3` [Compound 31], the IC50 (HCV replicon) was > 2 µM.
For `CC(C)(C)OC(=O)c1sc2nc3c(c(-c4ccco4)c2c1N)CCCC3` [Compound 32], the IC50 (HCV replicon) was > 2 µM.
With `CC(C)(C)OC(=O)c1sc2nc3c(c(-c4ccco4)c2c1N)CCC3` [Compound 33] the IC50 (HCV replicon) was > 2 µM.
With `CC(C)(C)OC(=O)c1sc2nc3c(c(-c4cccs4)c2c1N)CCCC3` [Compound 34] the IC50 (HCV replicon) was > 2 µM.
In the case of `CCc1c(C)nc2sc(C(=O)OC(C)(C)C)c(-c3cccc(C#N)c3)c2c1C` [Compound 36], the IC50 (HCV replicon) is reported as > 2 µM.
In the case of `CCc1c(C)nc2sc(C(=O)OC(C)(C)C)c(-c3ccc(OC)cc3)c2c1C` [Compound 37, t-butyl 5-ethyl-3-(4-methoxy-phenyl)-4,6-dimethyl-thieno[2,3-b]pyridine-2-carboxylate], the IC50 (HCV replicon) is reported as > 2 µM.
In the case of `Cc1cc(CO)c2c3c(sc2n1)C(=O)NC(c1ccccc1)N3` (stereo not drawn) [Compound 38, 4-hydroxymethyl-2-methyl-6-phenyl-6,7-dihydro-5H-9-thia-1,5,7-triaza-fluoren-8-one], the IC50 (HCV replicon) is reported as > 2 µM.
With `CCc1c(C)nc2sc(C(=O)OC(C)(C)C)c(-c3ccc4c(c3)OCO4)c2c1C` [Compound 39] the IC50 (HCV replicon) was > 2 µM and the melting point was 151 to 152 °C.
In the case of `CCc1c(C)nc2sc(C(=O)OC(C)(C)C)c(-c3ccoc3)c2c1C` [Compound 40], the IC50 (HCV replicon) is reported as > 2 µM and the melting point is reported as 111 to 111.5 °C.
For `CCc1c(C)nc2sc(C(=O)N3CCCCC3)c(-c3ccc(OC)cc3)c2c1C` [Compound 41], the IC50 (HCV replicon) was > 2 µM.
With `CCc1c(C)nc2sc(C(=O)OC(C)(C)C)c(-c3ccc(Cl)cc3)c2c1C` [Compound 42] the IC50 (HCV replicon) was > 2 µM and the melting point was 117 to 118 °C.
In the case of `CCc1c(C)nc2sc(C(=O)OC(C)(C)C)c(-c3cccc(Cl)c3)c2c1C` [Compound 43], the IC50 (HCV replicon) is reported as > 2 µM and the melting point is reported as 152.1 to 152.6 °C.
In the case of `CCc1c(C)nc2sc(C(=O)NCc3ccccc3)c(-c3ccc(OC)cc3)c2c1C` [Compound 44], the IC50 (HCV replicon) is reported as > 2 µM.
For `Nc1c(C(=O)Nc2ccc(Br)cc2)sc2nc3c(c(-c4ccco4)c12)CCCCC3` [Compound 51], the IC50 (HCV replicon) was > 2 µM.
With `CCc1c(C)nc2sc(C(=O)SC(C)(C)C)c(N)c2c1C` [Compound 56] the IC50 (HCV replicon) was > 2 µM.
With `COc1ccc(Nc2sc3nc4c(c(-c5cccs5)c3c2C#N)CCCCC4)cc1` [Compound 64] the IC50 (HCV replicon) was > 2 µM.
For `Cc1nc2sc(C(=O)OC(C)(C)C)c(N)c2c(C)c1OCCN1CCCN(C)CC1` [Compound 68], the IC50 (HCV replicon) was 0.5 to 2 µM.
Compound `Cc1nc2sc(C(=O)OC(C)(C)C)c(N)c2c(C)c1OCCN1CCN(CCCN(C)C)CC1` [Compound 69] has an IC50 (HCV replicon) of 0.5 to 2 µM.
In the case of `Cc1nc2sc(C(=O)OC(C)(C)C)c(N)c2c(C)c1OCCN1CCCCC1` [Compound 70], the IC50 (HCV replicon) is reported as 0.5 to 2 µM.
In the case of `Cc1nc2sc(C(=O)OC(C)(C)C)c(N)c2c(C)c1OCCN(C)C` [Compound 72], the IC50 (HCV replicon) is reported as > 2 µM.
In the case of `Cc1nc2sc(C(=O)OC(C)(C)C)c(N)c2c(C)c1OCCN(C)CCN(C)C` [Compound 73], the IC50 (HCV replicon) is reported as 0.5 to 2 µM.
With `CCN1CCN(CCOc2c(C)nc3sc(C(=O)OC(C)(C)C)c(N)c3c2C)CC1` [Compound 74] the IC50 (HCV replicon) was > 2 µM.
